Reference: ChEMBL document CHEMBL6092184, “Talauromides A-G, Nitrogen-Containing Heptacyclic Oligophenalenone Dimers from the Soil Fungus Talaromyces stipitatus BMC-16” (2024)
Activity calls are given as the source filed them. No cut-off for these calls is given here.

Experiments:
HEK293T = test: Inhibition of Wnt/beta-catenin signaling pathway in HEK293T cells assessed as downregulation of BIO-induced nonphosphorylated beta-catenin level at 20 uM incubated for 12 hrs by immunoblotting analysis; format: cell-based; settings: Homo sapiens
[1] = In-vivo inhibition of BIO-induced Wnt/beta-catenin signaling pathway in zebrafish embryo assessed as reversal of eyeless phenotype to small and normal like eyes at 20 uM measured at 48 hrs post fertilization; format: functional; settings: Danio rerio

Question: What does the source list for CC(=O)O[C@H]1[C@@H]2C(=O)c3c(C)cc(O)c4c3[C@@]1(COC4=O)c1c(O)c3c4c(c(O)cc(C)c4c12)C(=O)O3?
Answer: inhibition (HEK293T): Active; inhibition in vivo at 20 µM [1]: 80%

Question: Which results are given for Cc1cc(O)c2c3c1C(=O)[C@@H]1C4=C(C(=O)c5cn(CCCC(=O)O)c(=O)c6c(O)cc(C)c4c56)[C@@]3(COC2=O)[C@H]1O?
Answer: inhibition (HEK293T): Active; inhibition in vivo at 20 µM [1]: 96.6%

Question: For CC(=O)O[C@H]1[C@@H]2C(=O)c3c(C)cc(O)c4c3[C@@]1(COC4=O)c1c(O)c3c4c(c(O)cc(C)c4c12)C(=O)OC3, which inhibition (HEK293T) is on record?
Answer: The inhibition was “Active”.

Question: And the inhibition in vivo at 20 µM [1]?
Answer: The inhibition in vivo at 20 µM was 100%.
